Reference: patent publication US5658884A, “Establishment of tonic ovarian estrogen secretion for extended therapeutic regimens” (The Medical College of Hampton Roads, priority 1995, dated 1997)
Where “and” joins values, the source holds several entries; their conditions need not be identical. Identical values can stand only once.

Key:
[1] = tested on: adult female cynomolgus monkeys; assay: Part II: titering the GnRHant dose to individual monkeys with periodic progesterone challenge tests (withdrawal bleeding versus amenorrhea, serum estradiol RIA); assay type: in vivo
Description: (§1) Eleven adult female cynomolgus monkeys having regular and presumably ovulatory menstrual cycles were entered into the study. Body weights were determined monthly. Menstrual bleeding and spotting were recorded daily by visual inspection of external genitalia and insertion of vaginal swabs using a saline moistened cotton-tipped applicator, respectively. Blood samples were collected from femoral vessels and the serum stored for subsequent RIA of estradiol and progesterone. Coefficients of variation for these assays were: 7.4 and 11.1; and 7.0 and 10.9%, respectively, for within and between assays. The GnRH antagonist (GnRHant) used was Nal-Glu: [Ac-D2NAL, 4ClDPhe^2, D3Pal^3, Arg^5, DGlu^6 (AA), DAla^10 ]-GnRH.
Concurrently, a pair of progesterone-loaded silastic implants were inserted sc during GnRHant treatment from day 20 and 30, and then removed. If withdrawal menses occurred during the next week, the individual Nal-Glu dose was raised to 0.1 mg/kg daily. […] Again, amenorrhea or withdrawal menses was recorded.
For definition, withdrawal bleeding was scored when blood was on the external genitalia for two or more consecutive days within the week following progesterone withdrawal. Spotting was scored when blood was evident only by coloration of the cotton swab upon insertion into the vagina.

[2] = tested on: adult female cynomolgus monkeys; assay: Part I dose-finding study: residual serum estradiol (RIA) during 14 days of daily im GnRH antagonist; assay type: in vivo; details: 0.1 mg/kg im daily; individual monkeys for whom the dose was too much, predominately
Description: as §1
In Part I of the study, the object was to perform a brief dose-finding study that indicated residual serum estradiol levels in intact primates previously illustrating regular menstrual cycles. Specifically sought was an approximation of the minimal daily im dose of Nal-Glu sufficient to suppress circulating estradiol levels into the target range: less than 45 pg/ml but more than 35 pg/ml. Beginning on day 2 of the menstrual cycle, Nal-Glu GnRHant, suspended in sesame oil, was administered between 9 and 10 am in doses of 0.1 (n=5) and 0.3 mg/kg (n=6) for 14 days. Femoral blood was obtained daily under ketamine anesthesia. […]

[3] = tested on: pituitary-ovarian axis; details: sufficient single dose, monkeys, follicular phase; cited from earlier work

Substance	mean serum estradiol concentrations ([1]; 8 monkeys after increase of the dose to 0.1 mg/kg im daily)	Amenorrhea Achieved (Monkeys) ([1]; first progesterone challenge test, withdrawal week days 31-37, all 11 monkeys at 0.05 mg/kg im daily)	monkeys manifesting frank withdrawal menses ([1]; first progesterone challenge test, 0.05 mg/kg im daily)	serum estradiol ([1]; lone resistant monkey at 0.2 mg/kg im daily, ultimately)	Amenorrhea Achieved (Monkeys) ([1]; second progesterone challenge test, withdrawal week days 61-67, doses 0.05 or 0.1 mg/kg im daily)	withdrawal outcome of the two monkeys that remained on 0.05 mg/kg ([1]; second progesterone challenge test, 0.05 mg/kg im daily)	monkeys achieving withdrawal amenorrhea ([1]; second progesterone challenge test, the nine females raised to 0.1 mg/kg im daily on day 31)	mean serum estradiol levels ([1]; the two primates amenorrheic at 0.05 mg/kg im daily, target zone 35 to 45 pg/ml)	Amenorrhea Achieved (Monkeys) ([1]; third progesterone challenge test, withdrawal week days 91-97, doses 0.05, 0.1 or 0.2 mg/kg im daily)	Incidence of Spotting ([1]; week of progesterone withdrawal days 31-37, 0.05 mg/kg im daily) [days]	Incidence of Spotting ([1]; week of progesterone withdrawal days 61-67, 0.05 or 0.1 mg/kg im daily) [days]	Incidence of Spotting ([1]; week of progesterone withdrawal days 91-97, 0.05, 0.1 or 0.2 mg/kg im daily) [days]	serum estradiols of some primates [2] [pg/mL]	effect on the pituitary-ovarian axis [3]
[Ac-D2NAL, 4ClDPhe^2, D3Pal^3, Arg^5, DGlu^6 (AA), DAla^10 ]-GnRH [Nal-Glu]	approximately 40 pg/ml	two and 2/11	Nine	under 20 pg/ml	10/11	remained amenorrheic	8 of 9	hovered in or near the target zone	all eleven and 11/11	13	12	0	< 25	
D-Ac-D-2-Nal^1 -DpClPhe^2 -D-3-Pal^3 -Ser^4 -NiLys^5 -D-NicLys^6 -Leu^7 -ILys^8 -Pro^9 -D-Ala^10 [antide]														immediate and sustained inhibition of the pituitary-ovarian axis
